Patent US5089506A, “Ethanobicyclic amine derivatives for CNS disorders” (G. D. Searle & Co., priority 1990, dated 1992)
Read-outs that look alike come from different tables or passages of the source.

Tests used:
NMDA receptor = conditions: C. Carter et al, J. Pharm Exp. Ther., 247(3), 1222-1232 (1988); cited from earlier work
sigma receptor = target: T1, sigma receptor (Rattus norvegicus, UniProt Q9R0C9); assay: Radioreceptor assay: sigma receptor binding (displacement of [3H]-3-(+)-PPP) in crude rat brain membranes; design: species or system male Sprague-Dawley rats
T1 construct: crude membrane preparations were prepared as follows; Brains from male Sprague-Dawley rats; from tissue; host or cells: whole brain of male Sprague-Dawley rats, crude membranes
Procedure: To determine the effects of the compounds in a sigma receptor assay, crude membrane preparations were prepared as follows. Brains from male Sprague-Dawley rats were homogenized in 10 volumes (wt/vol) of 0.32M sucrose, using a Polytron grinder. The homogenate was centrifuged at 900×g for 10 minutes at 4° C. The supernatant was collected and centrifuged at 22,000×X g for 20 minutes at 4° C. The pellet was resuspended in 10 volumes of 50 mM Tris/HCl buffer (pH 7.4) and centrifuged at 22,000×g for 20 minutes at 4° C. The pellet was resuspended in 5 mM Tris/HCl buffer (pH 7.4) to give a final concentration of 250 mg/ml of the crude material. Incubation tubes were prepared in triplicate and contained 0.1 ml of tissue suspension, 2 nM of [^3 H]-(+)-1-propyl-3-(3-hydroxyphenyl)piperidine [^3 H]-3-(+)-PPP, and varying concentrations of the displacing ligand (0.1-1000 nM) in a final volume of 0.5 ml. After a 1 hr incubation at room temperature, the contents of the test tubes were filtered through GS filter paper which had been presoaked for at least 2 hours in 0.05% polyethyleneimine. The test tubes were rinsed three times with Tris/HCl buffer. Radioactivity on the filters was determined using liquid scintillation spectrometry and inhibition curves were calculated according to the method of Cheng and Prusoff [Biochem. Pharmacol., 22, 3099-3108 (1973)].

[1] = tested on: N-allylnormetazocine-induced stereotyped behavior; assay: Blockade of agonist (N-allylnormetazocine)-induced stereotyped behavior and ataxia; assay type: in vivo; conditions: ip, N-allylnormetazocine 15 mg/kg i.p.
Procedure: Compounds of the invention were evaluated for their ability to block the effects of N-allylnormetazocine on the induction of stereotyped behavior and ataxia. To test for antagonism, drugs are administered at varying times before i.p. administration of 15 mg/kg of N-allylnormetazocine. Behavioral and ataxia ratings are taken at 2.5 minutes, 5 minutes, and every 5 minutes thereafter until the animal returns to control behavior. […] The lowest dose of the test compound which is capable of blocking the stereotyped behavior and ataxia induced by N-allylnormetazocine was determined.

[2] = [3H]-3-(+)-PPP 2 nM, rat brain crude membranes, 1 hr, room temperature, ± SEM, Table II, read-out: Ki apparent (units ± SEM)
[3] = test compound i.p. (route given for the 1 mg/kg dose), read-out: dose which fully blocked N-allylnormetazocine-induced stereotyped behavior (lowest dose capable of blocking)

T1 sequence (Q9R0C9 whole entry): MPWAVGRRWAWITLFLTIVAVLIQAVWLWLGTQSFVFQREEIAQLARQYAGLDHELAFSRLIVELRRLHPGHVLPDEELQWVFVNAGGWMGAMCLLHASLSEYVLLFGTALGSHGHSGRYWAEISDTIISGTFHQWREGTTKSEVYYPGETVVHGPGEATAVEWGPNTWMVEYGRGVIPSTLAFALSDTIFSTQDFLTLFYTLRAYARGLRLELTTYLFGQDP

Row | Molecule | Ki (sigma receptor; [2]) | minimal effective dose [1, 3] | Ki (sigma receptor) | other results
1 | 1-(4-chlorophenyl)-2-[1-(4-fluorophenyl)piperidinyl]ethanol | – | – | – | found to be non-competitive NMDA receptor antagonists (NMDA receptor): non-competitive NMDA receptor antagonists
2 | c1ccc2c(c1)C1CCC2C(N2CCCCC2)C1 (centres unmarked) [Compound No. 1, 1-(2-Benzobicyclo[2.2.2]octenyl)piperidine] | 137 ± 9 nM | – | – | –
3 | c1ccc2c(c1)C1CCC2C(CN2CCCCC2)C1 (centres unmarked) [Compound No. 2, 1-(2-Benzobicyclo[2.2.2]octenyl)methylpiperidine] | 11 ± 6 nM | 3 mg/kg | – | –
4 | CN1CCN(CC2CC3CCC2c2ccccc23)CC1 (centres unmarked) [Compound No. 3, 1-(2-Benzobicyclo[2.2.2]octenyl)methyl-4-methylpiperazine] | 4 ± 2 nM | 1 mg/kg | – | –
5 | CN1CCN(C2CC3CCC2c2ccccc23)CC1 (centres unmarked) [Compound No. 4, 1-(2-benzobicyclo[2.2.2]octenyl)-4-methylpiperazine] | 170 ± 40 nM | – | – | –
6 | c1ccc2c(c1)C1CC(CN3CCCCC3)C2C1 (centres unmarked) [Compound No. 5, 1-(2-Benzobicyclo[2.2.1]heptenyl)methylpiperidine] | – | 1 mg/kg | 9 ± 4 nM | –
7 | c1ccc2c(c1)C1CC2C(N2CCCCC2)C1 (centres unmarked) [Compound No. 6, 1-(2-Benzobicyclo[2.2.1]heptenyl)piperidine] | – | – | 0.075 ± 0.06 nM | minimal effective dose ([1]; read-out: dose which blocked these same responses (N-allylnormetazocine-induced stereotyped behavior; not stated as fully)): 10 mg/kg
8 | CN1CCN(CC2CC3CC2c2ccccc23)CC1 (centres unmarked) [Compound No. 7, 1-(2-benzobicyclo[2.2.1]-heptenyl)methyl-4-methylpiperazine] | – | – | 22000 ± 2000 nM | –
9 | CN1CCN(C2CC3CC2c2ccccc23)CC1 (centres unmarked) [Compound No. 8, 1-(2-Benzobicyclo[2.2.1]heptenyl)-4-methylpiperazine] | – | – | 943 ± 3 nM | –
10 | CC(C(O)c1ccc(O)cc1)N1CCC(Cc2ccccc2)CC1 (centres unmarked) [ifenprodil] | – | – | – | found to be non-competitive NMDA receptor antagonists (NMDA receptor): non-competitive NMDA receptor antagonists
